Drawing on patent US10759793B2, “2-(pyrazolopyridin-3-yl)pyrimidine derivatives as JAK inhibitors” (ALMIRALL, S.A., priority 2015, dated 2020), this text covers IC50 for eleven compounds.

The term IC50 denotes the point on the concentration scale where inhibition reaches its midpoint. A high value points to a need for much substance.

Type in all cases: biochemical
One experiment deals with JAK3 (Homo sapiens (Human), UniProt P52333). Briefly: In vitro JAK kinase assay (TR-FRET), JAK3. The note with it: catalytic domain aa 795-1124, GST-fusion; ATP 0.6 μM; peptide 140 nM; 30 minutes at room temperature. In a few lines:
(§1)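 Each human JAK enzyme assayed on biotinylated poly(GT) peptide substrate, reaction 30 min at room temperature. Phosphorylation detected by TR-FRET after a 3 h detection incubation.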
For orientation: Time-resolved FRET reads energy transfer from a long-lived donor to a nearby acceptor.

Another experiment concerns the target JAK1 (Homo sapiens (Human), UniProt P23458). Briefly: In vitro JAK kinase assay (TR-FRET), JAK1. The note with it: catalytic domain aa 850-1154, GST-fusion; ATP 3 μM; peptide 60 nM; 30 minutes at room temperature. In a few lines: as §1
The next experiment concerns the target JAK2 (Homo sapiens (Human), UniProt O60674). Briefly: In vitro JAK kinase assay (TR-FRET), JAK2. The settings on record: catalytic domain aa 826-1132, GST-fusion; ATP 0.2 μM; peptide 20 nM; 30 minutes at room temperature. In a few lines: as §1

Chain of JAK2 (O60674 826-1132): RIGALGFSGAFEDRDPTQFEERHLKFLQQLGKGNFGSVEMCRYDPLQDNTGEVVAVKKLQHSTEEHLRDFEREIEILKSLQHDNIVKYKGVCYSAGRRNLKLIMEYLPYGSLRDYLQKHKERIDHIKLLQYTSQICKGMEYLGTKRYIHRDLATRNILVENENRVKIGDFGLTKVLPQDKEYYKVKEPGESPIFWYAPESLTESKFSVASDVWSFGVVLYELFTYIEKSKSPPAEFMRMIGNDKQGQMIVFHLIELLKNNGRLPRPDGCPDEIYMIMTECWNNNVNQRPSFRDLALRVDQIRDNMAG
Chain of JAK3 (P52333 795-1124): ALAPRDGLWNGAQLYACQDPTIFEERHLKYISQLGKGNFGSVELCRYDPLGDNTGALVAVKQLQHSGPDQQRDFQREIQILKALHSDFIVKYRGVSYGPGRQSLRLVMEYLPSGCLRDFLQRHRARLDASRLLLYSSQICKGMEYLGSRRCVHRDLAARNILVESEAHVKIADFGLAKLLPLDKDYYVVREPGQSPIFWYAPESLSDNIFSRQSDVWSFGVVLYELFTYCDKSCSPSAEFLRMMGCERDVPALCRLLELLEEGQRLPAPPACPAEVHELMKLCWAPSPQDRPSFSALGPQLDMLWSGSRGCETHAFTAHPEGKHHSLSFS
Chain of JAK1 (P23458 850-1154): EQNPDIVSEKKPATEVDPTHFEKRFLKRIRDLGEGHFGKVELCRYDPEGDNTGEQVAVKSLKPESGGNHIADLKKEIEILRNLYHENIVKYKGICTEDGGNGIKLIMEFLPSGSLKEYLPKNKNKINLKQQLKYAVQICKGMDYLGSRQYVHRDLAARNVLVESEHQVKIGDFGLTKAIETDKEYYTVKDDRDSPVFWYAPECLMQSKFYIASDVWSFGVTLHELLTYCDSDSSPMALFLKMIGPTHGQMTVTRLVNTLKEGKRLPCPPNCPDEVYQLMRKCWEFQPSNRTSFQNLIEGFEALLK

`N#CCC(=O)N1CCC[C@@H](Oc2nc(-c3cnn4ccccc34)nc(N3CCOCC3)c2F)C1` [Example 53, 3-{(3R)-3-[(5-fluoro-6-morpholin-4-yl-2-pyrazolo[1,5-a]pyridin-3-ylpyrimidin-4-yl)oxy]piperidin-1-yl}-3-oxopropanenitrile]: the 50% inhibitory concentration (IC50) at JAK3 turned out to be 3 nM; at JAK1, 2 nM; against JAK2, 0.5 nM.
Turning to `Cc1ccc(-c2nc(-c3cnn4ccccc34)nc(N[C@@H]3CCCN(C(=O)CO)C3)c2F)cn1` [Example 36, 2-((3R)-3-{[5-Fluoro-6-(6-methylpyridin-3-yl)-2-pyrazolo[1,5-a]pyridin-3-ylpyrimidin-4-yl]amino}piperidin-1-yl)-2-oxoethanol], the IC50 on JAK3 was determined as 2 nM; against JAK1, 2 nM; at JAK2, 0.5 nM.
Regarding `N#CCC(=O)N1CCC[C@@H](Nc2nc(-c3cnn4ccccc34)nc(OCCO)c2F)C1` [Example 14, 3-((3R)-3-{[5-fluoro-6-(2-hydroxyethoxy)-2-pyrazolo[1,5-a]pyridin-3-ylpyrimidin-4-yl]amino}piperidin-1-yl)-3-oxopropanenitrile], the IC50 against JAK3 is 1 nM; on JAK1, 1 nM; on JAK2, 0.5 nM.
In the case of `COc1ccc(-c2nc(-c3cnn4ccccc34)nc(N[C@@H]3CCCN(C(=O)CC#N)C3)c2F)cn1` [Example 19, 3-((3R)-3-{[5-fluoro-6-(6-methoxypyridin-3-yl)-2-pyrazolo[1,5-a]pyridin-3-ylpyrimidin-4-yl]amino}piperidin-1-yl)-3-oxopropanenitrile], the IC50 was found to be 2 nM against JAK3, 2 nM against JAK1 and 0.3 nM against JAK2.
For the compound `O=C(CO)N1CCC[C@@H](Nc2nc(-c3cnn4ccccc34)nc(-c3cncc(CO)c3)c2F)C1` [Example 88, 2-[(3R)-3-({5-Fluoro-6-[5-(hydroxymethyl)pyridin-3-yl]-2-pyrazolo[1,5-a]pyridin-3-ylpyrimidin-4-yl}amino)piperidin-1-yl]-2-oxoethanol], the half-inhibitory concentration (IC50) turned out to be 4 nM at JAK3, 14 nM at JAK1 and 1 nM on JAK2.
For `N#CC[C@H]1CC[C@H](Nc2nc(-c3cnn4ccccc34)nc(OC[C@@H](O)CO)c2F)CC1` [Example 6, {Trans-4-[(6-{[(2S)-2,3-dihydroxypropyl]oxy}-5-fluoro-2-pyrazolo[1,5-a]pyridin-3-ylpyrimidin-4-yl)amino]cyclohexyl}acetonitrile], in that order: 3 nM, 15 nM and 0.7 nM.
Turning to `COc1cc(N[C@@H]2CCCN(C(=O)CO)C2)nc(-c2cnn3ccccc23)n1` [Example 94, 2-{(3R)-3-[(6-Methoxy-2-pyrazolo[1,5-a]pyridin-3-ylpyrimidin-4-yl)amino]piperidin-1-yl}-2-oxoethanol], the IC50 was 7 nM at JAK3, 7 nM on JAK1 and 1 nM against JAK2.
For the compound `O=C(CO)N1CCC[C@@H](Nc2cc(-c3cncc(O)c3)nc(-c3cnn4ccccc34)n2)C1` [Example 105, 5-(6-{[(3R)-1-Glycoloylpiperidin-3-yl]amino}-2-pyrazolo[1,5-a]pyridin-3-ylpyrimidin-4-yl)pyridin-3-ol], the IC50 against JAK3 was found to be 5 nM; at JAK1, 2 nM; on JAK2, 5 nM.
For the compound `COCCOc1cc(N[C@@H]2CCCN(C(=O)CC#N)C2)nc(-c2cnn3ccccc23)n1` [Example 97, 3-((3R)-3-{[6-(2-Methoxyethoxy)-2-pyrazolo[1,5-a]pyridin-3-ylpyrimidin-4-yl]amino}piperidin-1-yl)-3-oxopropanenitrile], the half-maximal inhibitory concentration (IC50) on JAK3 is 1 nM; at JAK1 it was 2 nM; on JAK2, 1 nM.
As to `Cc1cc(-c2nc(-c3cnn4ccccc34)nc(N(C)[C@@H]3CCCN(C(=O)CC#N)C3)c2F)ccn1` [Example 21, 3-{(3R)-3-[[5-fluoro-6-(2-methylpyridin-4-yl)-2-pyrazolo[1,5-a]pyridin-3-ylpyrimidin-4-yl](methyl)amino]piperidin-1-yl}-3-oxopropanenitrile], the half-maximal inhibitory concentration (IC50) was 11 nM at JAK3, 6 nM on JAK1 and 1 nM against JAK2.
As to `C[C@H](Nc1nc(-c2cnn3ccccc23)nc(OC[C@@H](O)CO)c1F)c1ncc(F)cn1` [Example 13, (2S)-3-[(5-fluoro-6-{[(1S)-1-(5-fluoropyrimidin-2-yl)ethyl]amino}-2-pyrazolo[1,5-a]pyridin-3-ylpyrimidin-4-yl)oxy]propane-1,2-diol], the IC50 at JAK3 was found to be 4 nM; against JAK1, 4 nM; at JAK2, 1 nM.
